Experimental data reported in PubChem BioAssay (NCI).
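48-hour exposure; five concentrations; linearly interpolated endpoints. TGI: concentration producing complete growth inhibition.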

How the values were obtained:
Assay in all cases: NCI anticancer screen, dose series, 48 h
COLO 205 colon = system: COLO 205 colon
HOP-62 NSCLC = system: HOP-62 NSCLC
LOX IMVI melanoma = system: LOX IMVI melanoma
NCI-H226 lung = system: NCI-H226 lung
NCI-H522 lung = system: NCI-H522 lung
PC-3 prostate = system: PC-3 prostate
SNB-75 CNS = system: SNB-75 CNS
UACC-62 melanoma = system: UACC-62 melanoma

| SMILES | TGI (COLO 205 colon) [µM] | TGI (HOP-62 NSCLC) [µM] | TGI (LOX IMVI melanoma) [µM] | TGI (NCI-H226 lung) [µM] | TGI (NCI-H522 lung) [µM] | TGI (PC-3 prostate) [µM] | TGI (SNB-75 CNS) [µM] | TGI (UACC-62 melanoma) [µM] |
| --- | --- | --- | --- | --- | --- | --- | --- | --- |
| C=C1C[C@@H](O)[C@@H](Br)C(C)(C)[C@@]12C=CC(=O)CC2 | 4.34 | > 100 | > 100 | > 26.3 | > 100 | 7.97 | > 100 | > 100 |
| CC(=O)C(C(=O)c1ccc(C)cc1)[C@H]1OC(C)(C)O[C@H]1[C@H]1COC(C)(C)O1 (some centres not stated) | 18.7 | 14.3 | 8.16 | 29.2 | 14.2 | 9.17 | 10.8 | 12.5 |
| O=c1[nH]nc(-c2ccccc2)n1/N=C/c1ccccc1O | > 100 |  | > 100 | > 100 | > 100 | > 100 |  | > 100 |
| Nc1[nH]c(=O)nc2snnc12 | > 100 | > 100 | 65.2 | > 100 | > 100 | > 100 | > 100 | > 78.3 |
| O=C1CCCC/C1=C\c1ccc([N+](=O)[O-])cc1 | 32.3 | 29 | 3.74 |  | 30.2 | 4.46 | 46 | 30.7 |
| CC1CN=C(Nc2cccc(F)c2)S1 (configuration not stated) | > 100 | > 100 | > 100 | > 100 | > 100 | > 100 | > 100 | > 100 |
| FC(F)(F)c1ccc2c(c1)nc1n2C(c2c(Cl)cccc2Cl)SC1 (configuration not stated) |  | 31 | > 100 | 58.2 | 51.9 | 37.9 | 45.1 | 34.1 |
| CCOC(=O)c1sc2c(c1OC(=O)c1cc(OC)c(OC)c(OC)c1)c(=O)n(-c1ccccc1)c(=S)n2-c1ccccc1 | > 100 | > 100 | > 100 | > 100 | 63.1 | > 100 | > 100 | > 100 |
| O=C(N=Nc1ccc(Cl)cc1Cl)NNc1ccc(Cl)cc1Cl |  | 18.6 | 30.4 | 48.2 | 41.9 | 34.8 | > 100 | 29 |
| COc1cc(/C=N/N=C(\N)NO)cc(OC)c1OC | > 100 | > 100 | > 100 | 73.8 | 80.6 | > 100 |  | 50.5 |
| O=C1/C(=C\c2ccc(Br)cc2)CCCc2ccccc21 | 31.8 | > 100 | 29.9 | 28.6 |  | 55.4 | 52.7 | 26.5 |
| C[C@@H](C[C@H]1OC(C)(C)O[C@@H]1C(C)(C)O)[C@H]1CC=C2[C@]3(C)[C@H](O)C[C@H]4C(C)(C)[C@H](O)CC[C@]4(C)[C@H]3CC[C@]21C | 10.5 | 20.7 | 17.3 | 20.6 | 20.9 | 14.6 | 19.8 | 34 |
| N=c1oc2ccccc2cc1-c1nc2ccccc2[nH]1 | > 100 | > 100 | > 100 | > 100 | 4.57 | > 100 | > 100 | > 100 |
| COc1ccc(-c2c(-c3ccc(OC)cc3)n3c(=O)n(C)c(=O)n23)cc1 | > 100 | > 100 | > 100 | > 100 | > 100 | > 100 | > 100 | > 100 |
| N#Cc1c2ccc([N+](=O)[O-])cc2c(=O)n2c1[nH]c1ccc(C(F)(F)F)cc12 | > 46.3 | > 100 | 45.6 | > 88.3 | 38.7 | > 100 | > 100 | > 100 |
| COc1ccc(C2=[S+]C(c3ccccc3)(c3ccccc3)c3ccccc32)cc1 | 31.3 | 79.3 | 31.9 | 31.3 | 79.8 | > 100 | 91.1 | 53.6 |
| CC(C)=NOC(=O)CNC(=O)C(Cc1ccccc1)NC(=O)C(C)NC(=O)OC(C)(C)C (configuration not stated) | > 100 | > 100 | > 100 | > 100 | > 100 | > 100 | > 100 | > 100 |
| COc1ccc2cc(CNCCCCCCCCNCc3ccc4cc(OC)ccc4c3)ccc2c1 | 29.6 | 10.2 | 43.4 | > 100 | 69.4 | 6.91 | 11.1 | 3.79 |
| CC[C@@H](CCCCC1CC[C@H]2CC(=O)C[C@@H]12)OC (some centres not stated) | > 100 | > 100 | > 100 | > 100 | > 100 | > 100 | > 100 | > 100 |
| C1CCCCC2(CCCCCCCCC3(CCC1)SCCS3)SCCS2 | > 100 | > 100 | > 100 | > 100 | > 100 | > 100 | > 100 | > 100 |
| CC12CC(=O)Nc3ccccc3N1C(c1ccccc1)=NO2 (configuration not stated) | > 100 | > 100 |  | > 100 | > 100 | > 100 | > 100 | > 100 |
| Cc1nc2ccc(S(=O)(=O)NS(=O)(=O)c3ccc(-c4ccccc4)cc3)cc2c(=O)n1NS(=O)(=O)c1ccc(-c2ccccc2)cc1 | > 100 | > 100 | > 100 | > 100 | > 100 | > 100 | > 100 | > 100 |
| CCCCc1ccc(-n2sc3ncc(-c4ccccc4)cc3c2=O)cc1 | > 100 | > 100 | > 100 | > 100 |  | > 100 | > 100 | > 100 |
| COc1ccc(-c2c(-c3ccccc3)c(C)c3ccccn23)cc1 | > 100 | > 100 | > 100 | > 100 | > 100 | > 100 | > 100 | > 100 |
| O=c1oc(-c2ccc(O)cc2)cc2cc(O)ccc12 | 50.5 | > 100 |  |  | > 100 | 94 | > 100 |  |
| O=C1NC(Nc2ccccc2)=N/C1=C\c1c(Cl)cccc1Cl | > 100 | > 100 | > 100 | 41.6 | > 100 | 39.6 | 42.3 | > 100 |
| COc1ccc2oc(S(=O)(=O)N3CC(CCl)c4ccc(N)cc43)cc2c1 (configuration not stated) | 14.9 | > 100 | > 53.1 | 1.77 | > 67.6 | > 100 | > 100 | > 100 |

| SMILES | TGI (COLO 205 colon) [µM] | TGI (HOP-62 NSCLC) [µM] | TGI (LOX IMVI melanoma) [µM] | TGI (NCI-H226 lung) [µM] | TGI (NCI-H522 lung) [µM] | TGI (PC-3 prostate) [µM] | TGI (SNB-75 CNS) [µM] | TGI (UACC-62 melanoma) [µM] |
| --- | --- | --- | --- | --- | --- | --- | --- | --- |
| O=C(Nc1cccc(F)c1)c1cc2ccc(O)cc2oc1=Nc1cccc(F)c1 | > 100 | > 100 | 9.35 |  | 13 | > 100 |  | > 100 |
| Nc1ccccc1C#CC(=O)c1cccc(C(F)(F)F)c1 | 3.87 | 27.9 | 4.02 | 18 | 2.36 | 12 | 27.4 | 3.85 |
| CO/N=C\c1ccc2c(c1)Sc1ccccc1O2 | > 100 | > 100 | > 100 | > 100 |  | > 100 | > 100 | > 100 |
| N#CCCN(CCC#N)c1ccc(/C=C2\N=C(c3ccccc3)N(c3ccc(C(=O)O)cc3)C2=O)cc1 | > 100 | > 100 | 93.2 | 95.5 |  | > 100 |  | 67.5 |
| N#[N+]c1c([O-])c2ccccc2c2ccccc12 | > 100 | > 100 | 86 | 89.3 | 85 | > 100 | 82.9 | 69.7 |
| CC12CCCCC1=C(F)C(F)(F)S2 (configuration not stated) | 40.2 | > 100 | 82.6 | > 100 | 45.3 | > 87.2 | > 100 | > 100 |
| Oc1ccc(/C=C/c2cccc(/C=C/c3ccc(O)c(O)c3)n2)cc1O | 28.9 | > 100 | 21.7 |  |  | > 100 | 16.5 | 18.6 |
| CCC(C)C(N)C(=O)N/N=C\c1c2c(nc3ccccc13)-c1cc3c(c(=O)n1C2)COC(=O)[C@]3(O)CC (some centres not stated) | > 51.6 | 1.15 | 1.08 | 1.66 | 3.23 | > 100 | 13.3 | 0.106 |
| CC1(C)OCC(C2OC3OC(C)(C)OC3C2c2ccccc2)O1 (configuration not stated) | 54 | > 100 | > 100 | 93.6 | > 100 | 98.7 | > 100 | 87.1 |
| CC(C)(C)C(=O)Oc1ccc(/C=C/C(=O)c2ccc(OC(=O)C(C)(C)C)cc2)cc1 | > 100 | > 100 | > 100 | > 100 | 8.78 | > 100 | > 100 | > 100 |
| CCC(=O)N/S(=N/S(=O)(=O)c1ccccc1)C(Cl)(Cl)Cl (configuration not stated) | > 100 | > 100 | > 100 | > 100 |  | > 100 | > 100 | > 100 |
| COC(=O)CCC1(CCC(=O)OC)CCCCCCC(CCC(=O)OC)(CCC(=O)OC)C(=O)C1=O | > 100 | > 100 | > 100 | > 100 | > 100 | > 100 | > 100 | > 100 |
| CCOP(=O)(OCC)/C(C#N)=C/c1ccccn1 | > 100 | > 100 | > 100 | > 100 | > 100 |  | > 100 | > 100 |
| N#Cc1c(Cl)c2cccnc2n2c1nc1ccccc12 | 4.02 | > 56.1 | 3.51 | 9.58 | 2.68 | 6.23 | 15.4 | 9.1 |
| O=c1[nH]nc(-c2ccccc2)n1/N=C/c1cccc([N+](=O)[O-])c1 | > 100 | > 100 | > 100 | > 100 | > 100 | > 100 | > 100 | > 100 |
| CCOC(=O)C(=CNc1ccc(N(C2=NCC(C)S2)c2ccc(F)c(Cl)c2)cc1)C(=O)OCC (configuration not stated) | 33.3 | 52 | 34.5 | 36.6 | 30.3 | 50.9 | 43.7 |  |
| Cc1cccc2oc3c(c(=O)c12)CC(O)C(C)(C)O3 (configuration not stated) | > 100 | > 100 | > 100 | > 100 | 87.5 | > 100 |  | > 100 |
| Cc1ccc(O)c(C2=CC3=NNC(=O)C3C(c3cccc(Cl)c3)C2)c1 (configuration not stated) | 30.4 | > 100 | 49.1 |  |  | > 100 | 76.2 | 86.6 |
| CN=C(Nc1ccc(OC)c2ccccc12)SC | > 10 | > 10 | > 10 |  | > 10 | > 10 | > 10 | > 10 |
| O=C(c1cccs1)c1nccc2c1cnc1ccccc12 | > 100 | > 100 | > 100 | > 100 |  | > 100 | > 100 | > 100 |
| O=C1C[C@@]23CCC4(CC2CCC[C@H]3O1)OCCO4 (some centres not stated) | > 100 | > 100 | > 100 | > 100 | > 100 | > 100 |  | > 100 |
| O=c1[nH]ncc2[nH]c3c4ccccc4ccc3c12 | 96.1 | > 100 | > 100 |  | 66.6 | > 100 |  |  |
| Cc1ccc(S(=O)(=O)CNC(=O)C(O)(O)C(F)(F)F)cc1 | > 100 | > 100 | > 100 |  | > 100 | > 100 |  | > 100 |
| C/C(=N\NC(=O)c1ccc(Cl)cc1)c1nc2ncccc2[nH]1 | 96.3 | > 100 | 57.8 |  | 58.3 | > 100 | 17.9 | 55.4 |
| CC(C)(C)OC(=O)N1NC(c2ccccc2)CC1c1ccccc1 (configuration not stated) | 41.2 | > 100 |  | 88.2 | > 100 |  | 76.7 | 88.1 |
| O=C(/C=C1\Sc2ccccc2N=C1CC(=O)c1ccccc1)c1ccccc1 | 22.3 | 19.8 | 21.2 | 35.5 | 55.4 | > 100 |  |  |
| COc1ccc2c(O)c(S(=O)(=O)c3ccc(C)cc3)c(=O)oc2c1OC | > 100 |  |  | > 100 | > 100 | > 100 | > 100 | > 100 |
